{
  "source": "patent US20260048052A1",
  "about": "“METHODS OF TREATING TENOSYNOVIAL GIANT CELL TUMORS” (Deciphera Pharmaceuticals, LLC, priority 2023, published 2026)",
  "test_system": "patients with TGCT",
  "test": "Phase 1/2 open-label, multicenter study of vimseltinib in patients with TGCT: efficacy",
  "assay_type": "in vivo, human",
  "conditions": "for Worst stiffness NRS response rate / Worst stiffness NRS response rate, n of responders: Week 25, response = at least a 2-point decrease; for PROMIS-PF response rate / PROMIS-PF response rate, No. of responders: Week 25, response = at least a 3-point increase; for Active ROM response rate / Active ROM response rate, No. of responders: Week 25, response = at least a 10% increase",
  "method": "This is a Phase 1/2 open-label, multicenter study evaluating the safety and efficacy of vimseltinib in patients with TGCT. In Phase 1, 32 patients enrolled in three cohorts across multiple doses. In Phase 2, 66 patients enrolled in two cohorts at the recommended Phase 2 dose of 30 mg twice weekly: Cohort A (n=46) in TGCT patients with no prior anti-CSF1/CSF1R therapy (prior therapy with imatinib or nilotinib allowed); and Cohort B (n=20) in TGCT patients with prior anti-CSF1/CSF1R therapy (prior therapy with imatinib or nilotinib alone not eligible). With regards to antitumor activity and treatment duration, 93 patients were evaluable for efficacy by RECIST version 1.1 at the data cutoff date.",
  "key": {"[1]": {"conditions": "Cohort A, Partial Response per RECIST v1.1 at Week 25 by IRR (n = 17)"}, "[2]": {"conditions": "Cohort A, Stable Disease per RECIST v1.1 at Week 25 by IRR (n = 22)"}, "[3]": {"conditions": "Cohort B (20 patients), Week 25"}, "[4]": {"conditions": "Cohort B, Partial Response per RECIST v1.1 at Week 25 by IRR (n = 5)"}, "[5]": {"conditions": "Cohort B, Stable Disease per RECIST v1.1 at Week 25 by IRR (n = 9)"}, "[6]": {"conditions": "Phase 2 Cohort A (n = 45), second data cutoff"}, "[7]": {"conditions": "Phase 2 Cohort B (n = 13), second data cutoff"}, "[8]": {"conditions": "Phase 2 Cohort B (n = 19), second data cutoff"}},
  "note": "Values joined by “and” are separate entries in the source; they are usually repeats but may differ in a detail not shown here. Equal entries are not always repeated.",
  "data": [
    {"smiles": "Cc1nc(-c2cnc(NC(C)C)n(C)c2=O)ccc1Oc1ccnc(-c2cnn(C)c2)c1", "note": "[Vimseltinib, 2-(isopropylamino)-3-methyl-5-(6-methyl-5-((2-(1-methyl-IH-pyrazol-4-yl)pyridin-4-yl)oxy)pyridin-2-yl)pyrimidin-4(3H)-one]", "values": [
      {"measurement": "Worst stiffness NRS at Week 25, mean", "setting": "Cohort A (32 patients)", "value": 3.1},
      {"measurement": "PROMIS-PF at Week 25, mean", "setting": "Cohort A (35 patients)", "value": 43.9},
      {"measurement": "BPI worst pain response rate", "setting": "Cohort A (46 patients), Week 25", "value": "(50) %"},
      {"measurement": "BPI worst pain response rate, No. of responders", "setting": "Cohort A (46 patients), Week 25, 30% or greater decrease without 30% or greater increase in narcotic analgesic use", "value": 23, "unit": "No."},
      {"measurement": "Average pain responder", "setting": "[1]", "value": "12 (71) No. (%)"},
      {"measurement": "Worst pain responder", "setting": "[1]", "value": "10 (59) No. (%)"},
      {"measurement": "Average pain responder", "setting": "[2]", "value": "12 (55) No. (%)"},
      {"measurement": "Worst pain responder", "setting": "[2]", "value": "12 (55) No. (%)"},
      {"measurement": "PROMIS-PF change from baseline, mean", "setting": "Cohort A, Week 25", "value": 3.9},
      {"measurement": "Worst stiffness NRS change from baseline, mean", "setting": "Cohort A, Week 25", "value": "−1.8"},
      {"measurement": "Worst stiffness NRS response rate", "setting": "Cohort A", "value": "(66) %"},
      {"measurement": "Worst stiffness NRS response rate, n of responders", "setting": "Cohort A", "value": 21, "unit": "n"},
      {"measurement": "PROMIS-PF response rate", "setting": "Cohort A", "value": "(49) %"},
      {"measurement": "PROMIS-PF response rate, No. of responders", "setting": "Cohort A", "value": 17, "unit": "No."},
      {"measurement": "Active ROM response rate", "setting": "Cohort A", "value": "(42) %"},
      {"measurement": "Active ROM response rate, No. of responders", "setting": "Cohort A", "value": 19, "unit": "No."},
      {"measurement": "patients with BPI response for both worst pain and average pain", "setting": "Cohort B (11/20), Week 25, ≥30% reduction in pain without ≥30% increase in narcotic analgesic use", "value": 55, "unit": "%"},
      {"measurement": "Worst stiffness NRS at Week 25, mean", "setting": "Cohort B (14 patients)", "value": 2.6},
      {"measurement": "PROMIS-PF at Week 25, mean", "setting": "Cohort B (15 patients)", "value": 49.5},
      {"measurement": "BPI worst pain response rate", "setting": "[3]", "value": "(55) %"},
      {"measurement": "BPI worst pain response rate, No. of responders", "setting": "[3]", "value": 11, "unit": "No."},
      {"measurement": "Average pain responder", "setting": "[4]", "value": "2 (40) No. (%)"},
      {"measurement": "Worst pain responder", "setting": "[4]", "value": "2 (40) No. (%)"},
      {"measurement": "Average pain responder", "setting": "[5]", "value": "7 (78) No. (%)"},
      {"measurement": "Worst pain responder", "setting": "[5]", "value": "7 (78) No. (%)"},
      {"measurement": "BPI responders among patients with objective responses by RECIST v1.1", "setting": "Cohort B, Week 25", "value": 40, "unit": "%"},
      {"measurement": "BPI responders among patients with stable disease", "setting": "Cohort B, Week 25", "value": 78, "unit": "%"},
      {"measurement": "PROMIS-PF change from baseline, mean", "setting": "Cohort B, Week 25", "value": 6.2},
      {"measurement": "Worst stiffness NRS change from baseline, mean", "setting": "Cohort B, Week 25", "value": "−2.2"},
      {"measurement": "patients with clinically meaningful improvements in NRS stiffness", "setting": "Cohort B, Week 25", "value": 58, "unit": "%"},
      {"measurement": "patients with clinically meaningful improvements in PROMIS-PF", "setting": "Cohort B, Week 25", "value": 63, "unit": "%"},
      {"measurement": "Worst stiffness NRS response rate", "setting": "Cohort B", "value": "(71) %"},
      {"measurement": "Worst stiffness NRS response rate, n of responders", "setting": "Cohort B", "value": 10, "unit": "n"},
      {"measurement": "PROMIS-PF response rate", "setting": "Cohort B", "value": "(80) %"},
      {"measurement": "PROMIS-PF response rate, No. of responders", "setting": "Cohort B", "value": 12, "unit": "No."},
      {"measurement": "Active ROM response rate", "setting": "Cohort B", "value": "(26) %"},
      {"measurement": "Active ROM response rate, No. of responders", "setting": "Cohort B", "value": 5, "unit": "No."},
      {"measurement": "ORR per RECIST v1.1 by IRR", "setting": "Phase 1 (n = 32), multiple doses, first data cutoff", "value": 72, "unit": "%"},
      {"measurement": "progression as assessed by IRR", "setting": "Phase 2, second data cutoff", "value": "no patients progressed"},
      {"measurement": "Active ROM at Week 25, mean", "setting": "Phase 2 Cohort A (33 patients), second data cutoff", "value": 77.8, "unit": "%"},
      {"measurement": "ORR per RECIST v1.1 by IRR at Week 25", "setting": "Phase 2 Cohort A (n = 45), 30 mg twice weekly, first data cutoff", "value": 38, "unit": "%"},
      {"measurement": "ORR per RECIST v1.1 by IRR", "setting": "Phase 2 Cohort A (n = 45), 30 mg twice weekly, no prior anti-CSF1/CSF1R therapy, first data cutoff", "value": 64, "unit": "%"},
      {"measurement": "ORR per RECIST v1.1 by IRR", "setting": "[6]", "value": 64, "unit": "%"},
      {"measurement": "ORR per RECIST v1.1 by IRR at Week 25", "setting": "[6]", "value": 38, "unit": "%"},
      {"measurement": "ORR per TVS by IRR", "setting": "[6]", "value": 62, "unit": "%"},
      {"measurement": "ORR per TVS by IRR at Week 25", "setting": "[6]", "value": 51, "unit": "%"},
      {"measurement": "Active ROM, change from baseline at Week 25, mean (SD)", "setting": "Phase 2 Cohort A, second data cutoff", "value": "19.7 (43.5) percentage points and 19.7 percentage points"},
      {"measurement": "Active ROM of the affected joint at Week 25, mean (SD)", "setting": "[7]", "value": "65.2 (37.5) % and 65.2%"},
      {"measurement": "Active ROM, change from baseline to Week 25, mean (SD)", "setting": "[7]", "value": "14.1 (27.4) percentage points and 14.1 percentage points"},
      {"measurement": "ORR per RECIST v1.1 by IRR", "setting": "Phase 2 Cohort B (n = 16), 30 mg twice weekly, prior anti-CSF1/CSF1R therapy, first data cutoff", "value": 44, "unit": "%"},
      {"measurement": "ORR per RECIST v1.1 by IRR", "setting": "[8]", "value": 37, "unit": "%"},
      {"measurement": "ORR per RECIST v1.1 by IRR at Week 25", "setting": "[8]", "value": 26, "unit": "%"},
      {"measurement": "ORR per TVS by IRR", "setting": "[8]", "value": 42, "unit": "%"},
      {"measurement": "ORR per TVS by IRR at Week 25", "setting": "[8]", "value": 26, "unit": "%"},
      {"measurement": "symptomatic benefit across secondary efficacy measures (ORR by TVS, active range of motion, physical function, stiffness, pain)", "setting": "Phase 2 Cohorts A and B, Week 25", "value": "clinically meaningful symptomatic benefit"},
      {"measurement": "Active ROM at Week 25: patients with decrease", "setting": "Phase 2 cohort A, FIG. 9A", "value": 4, "unit": "n"},
      {"measurement": "Active ROM at Week 25: patients with increase from baseline", "setting": "Phase 2 cohort A, FIG. 9A", "value": 23, "unit": "n"},
      {"measurement": "Active ROM at Week 25: patients with no change", "setting": "Phase 2 cohort A, FIG. 9A", "value": 5, "unit": "n"},
      {"measurement": "Active ROM at Week 25: patients with decrease", "setting": "Phase 2 cohort B, FIG. 9B", "value": 1, "unit": "n"},
      {"measurement": "Active ROM at Week 25: patients with increase from baseline", "setting": "Phase 2 cohort B, FIG. 9B", "value": 9, "unit": "n"},
      {"measurement": "Active ROM at Week 25: patients with no change", "setting": "Phase 2 cohort B, FIG. 9B", "value": 3, "unit": "n"}
    ]}
  ]
}
